According to patent publication US20240000765A1, “COMBINATION TREATMENT OF LIVER DISORDERS” (Terns Pharmaceuticals, Inc., priority 2020, published 2024):
Read-outs that look alike come from different tables or passages of the source. One block for each compound: values may come before it.

What was measured:
[1] = target: T1, THRα (Homo sapiens, UniProt P10827); experiment: Binding activity to THRα; conditions: read-out: IC50 THRα binding force
T1 sequence (P10827 1-410 isoform P10827-2): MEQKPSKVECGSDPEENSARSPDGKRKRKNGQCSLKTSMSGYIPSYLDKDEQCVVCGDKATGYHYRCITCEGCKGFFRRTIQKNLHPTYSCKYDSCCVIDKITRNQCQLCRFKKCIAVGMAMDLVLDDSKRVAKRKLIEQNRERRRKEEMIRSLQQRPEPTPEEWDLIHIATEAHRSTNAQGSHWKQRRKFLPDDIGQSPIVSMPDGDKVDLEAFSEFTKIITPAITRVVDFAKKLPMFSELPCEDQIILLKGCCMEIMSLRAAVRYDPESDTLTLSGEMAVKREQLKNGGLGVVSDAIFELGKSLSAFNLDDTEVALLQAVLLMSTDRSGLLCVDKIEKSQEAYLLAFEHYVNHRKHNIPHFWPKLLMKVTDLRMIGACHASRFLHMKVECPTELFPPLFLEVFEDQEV

[2] = target: T2, THRβ (Homo sapiens, UniProt P10828); experiment: Binding activity to the thyroxine receptor beta; conditions: ratio of binding IC50
T2 sequence (P10828 1-461): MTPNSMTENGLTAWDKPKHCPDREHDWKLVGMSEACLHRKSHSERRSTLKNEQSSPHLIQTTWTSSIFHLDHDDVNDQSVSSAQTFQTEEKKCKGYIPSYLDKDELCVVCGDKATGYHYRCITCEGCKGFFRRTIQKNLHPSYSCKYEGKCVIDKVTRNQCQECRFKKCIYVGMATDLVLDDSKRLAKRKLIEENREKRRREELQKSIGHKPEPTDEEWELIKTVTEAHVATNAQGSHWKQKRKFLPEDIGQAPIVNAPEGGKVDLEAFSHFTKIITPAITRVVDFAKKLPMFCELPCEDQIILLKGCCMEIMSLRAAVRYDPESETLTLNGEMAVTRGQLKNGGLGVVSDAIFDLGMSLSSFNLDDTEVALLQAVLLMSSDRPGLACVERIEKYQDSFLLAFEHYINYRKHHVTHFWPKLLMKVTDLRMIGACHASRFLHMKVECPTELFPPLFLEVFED

[3] = Pharmacokinetic evaluation in rats, intragastric infusion; format: in vivo; conditions: SD rats, intragastric 2 mg/kg
[4] = test system: FXR-regulated gene expression in liver and ileum; experiment: Mechanism of action: tissue RNA by RT-qPCR and RNAseq after a single oral dose; conditions: C57BL/6 mice, 6 hours; for number of differentially expressed NASH-related genes modulated vs vehicle (liver RNAseq): fold change≥1.5
[5] = test system: FXR-regulated gene expression (SHP, BSEP, FGF-19) in human HuH7 hepatoma cells; experiment: Cell-based RNA assay of FXR-regulated gene expression; conditions: Huh-7, 11 h at 37° C., RT-qPCR
Description: […]. See Kawamata et al JBC 278 (11)[…] (2003). […]. After 30 min at RT, cAMP was measured using an HTRF readout. EC50 values for FXR-regulated gene expression were determined using a cell-based RNA assay. […] After 11 h at 37° C., RNA was isolated and analyzed by RT-qPCR using primers to FXR-related genes: small heterodimer partner (SHP), bile salt export pump (BSEP) and fibroblast growth factor 19 (FGF-19).

[6] = other FXR agonists; cited from earlier work
[7] = test system: dog hepatocytes; experiment: In vitro metabolic stability in cryopreserved hepatocytes (dog); format: in vitro ADME; conditions: beagle dog hepatocytes; well-stirred liver model
Description: (§1) In vitro half-life values were determined and scaled to predict hepatic clearance (CLpred) and hepatic extraction using the well-stirred liver model with no correction for plasma protein as described in Obach et al., The Prediction of Human Pharmacokinetic Parameters from Preclinical and In Vitro Metabolism Data, J. of Pharmacology and Experimental Therapeutics, vol. 283, no. 1, pp. 46-58 (1997).

[8] = Tissue distribution of radiolabeled (14C) compound after oral dose; format: in vivo; conditions: Long-Evans rats, oral 5 mg/kg (100 μCi/kg), up to 168 hours
Description: Plasma, liver, small intestine, cecum, kidney, lung, heart and skin tissue samples were collected up to 168 hours, and the amount of radioactive material at various time points was measured.

[9] = test system: human hepatocytes; experiment: In vitro metabolic stability in cryopreserved hepatocytes (human); format: in vitro ADME; conditions: well-stirred liver model
Description: as §1

[10] = test system: rat hepatocytes; experiment: In vitro metabolic stability in cryopreserved hepatocytes (rat); format: in vitro ADME; conditions: Sprague-Dawley rat hepatocytes; well-stirred liver model
Description: as §1

[11] = Clinical study, First Study (healthy volunteers, 14 days); format: in vivo; conditions: healthy human volunteers, oral daily 5, 75, 200 or 400 mg
[12] = Pharmacokinetics assay, dog (IV and oral); format: in vivo, beagle dogs; conditions: beagle dog
Text: (§2) Results are shown in FIG. 1A (IV administration) and FIG. 1B (oral administration), and in Table 2. […] Smaller Vdss in monkeys is correlated with higher plasma protein binding.

[13] = test system: monkey hepatocytes; experiment: In vitro metabolic stability in cryopreserved hepatocytes (monkey); format: in vitro ADME; conditions: cynomolgus monkey hepatocytes; well-stirred liver model
Description: as §1

[14] = test system: mouse hepatocytes; experiment: In vitro metabolic stability in cryopreserved hepatocytes (mouse); format: in vitro ADME; conditions: well-stirred liver model
Description: as §1

[15] = rat, in vivo, iv, 2 mg/kg
[16] = test system: mouse model of NASH; experiment: Mouse model of NASH (high fat diet + CCl4), Compound 1
[17] = Clinical study, Second Study (7 days, 7AC4); conditions: for % 7AC4 suppression at nadir: human subjects
[18] = Metabolism and excretion of radiolabeled (14C) compound; format: in vivo; conditions: SD rats, oral 5 mg/kg or IV 2 mg/kg
Description: Blood, bile, feces, and urine samples were collected from each rat for up to 168 hours.

[19] = Pharmacokinetics assay, rat (IV and oral); format: in vivo, Sprague-Dawley (SD) rats; conditions: Sprague-Dawley rat, oral 10 mg/kg vs IV 1 mg/kg
Text: as §2

[20] = PK/PD profile, 7 consecutive daily oral doses; format: in vivo; conditions: cynomolgus monkeys, oral 1 mg/kg, 7 consecutive days
[21] = single oral dose, Compound 1 10 mg/kg, OCA 30 mg/kg
[22] = 10, 30, 100 mg/kg oral daily, 28 days
[23] = 10, 30, 100 mg/kg oral daily, 28 days, H&E
[24] = 10, 30, or 100 mg/kg oral daily, 28 days

Structure (SMILES): N#Cc1nn(-c2cc(Cl)c(Oc3n[nH]c(=O)c4c(Cl)cccc34)c(Cl)c2)c(=O)[nH]c1=O [Compound 7]
IC50 [1]: > 10000 nM | THRα/β selectivity (factor) [2]: >6.80

Curve area [3]: 9242 ± 1245 ng·h/mL | Time to peak [3]: 5.33 ± 1.15 h
Structure (SMILES): CC1(C)CCc2c(Oc3c(Cl)cc(-n4cc(C#N)c(=O)[nH]c4=O)cc3Cl)n[nH]c(=O)c21 [Compound 6]

Curve area [3]: 12854 ± 961 ng·h/mL | Peak blood drug concentration [3]: 1163 ± 97.1 ng/mL | Time to peak [3]: 5.3 ± 1.15 h
Structure (SMILES): CC(C)c1cc(Oc2c(Cl)cc(-n3nc(C#N)c(=O)[nH]c3=O)cc2Cl)n[nH]c1=O [Reference compound, 2-[3,5-Dichloro-4-(5-isopropyl-6-oxo-1,6-dihydropyridazin-3-yloxy)phenyl]-3,5-dioxo-2,3,4,5-tetrahydro[1,2,4]triazine-6-carbonitrile, reference compound]

Structure (SMILES): CC[C@H]1[C@@H](O)[C@@H]2[C@H](CC[C@]3(C)[C@@H]([C@H](C)CCC(=O)O)CC[C@@H]23)[C@@]2(C)CC[C@@H](O)C[C@@H]12 [OCA, obeticholic acid]
number of global pathways enriched (liver RNAseq) [4, 21]: 6 | number of differentially expressed NASH-related genes modulated vs vehicle (liver RNAseq) [4, 21]: 44 | EC50 ([5]; read-out: BSEP Gene induction/HuH7 EC50): 200 nM | EC50 ([5]; read-out: FGF-19 Gene Induction/HuH7 EC50): 130 nM | EC50 ([5]; read-out: SHP Gene induction/HuH7 EC50): 200 nM | pruritus in longer term studies [6]: known to result in pruritus

Structure (SMILES): O=C(O)c1cc(F)c2nc(N3[C@@H]4CC[C@H]3C[C@@H](OCc3c(-c5ccccc5OC(F)(F)F)noc3C3CC3)C4)sc2c1 [tropifexor]
pruritus in longer term studies [6]: known to result in pruritus

Structure (SMILES): Cn1cc(C(=O)O)c2ccc(N3CCC(OCc4c(-c5c(Cl)cccc5Cl)noc4C4CC4)CC3)cc21 [Compound 1]
Hepatic Extraction [7]: 71.0 ± 2.49% | In vitro Metabolic CLpred [7]: 22 ± 0.83 mL/min/kg | induction of FXR-specific genes, liver vs ileum (RT-qPCR) ([4]; single oral 10 mg/kg): preferentially induces FXR-specific genes in the liver | number of differentially expressed NASH-related genes modulated vs vehicle (liver RNAseq) [4, 21]: 500 | tissues with the most radioactive material [8]: Liver, small intestine, and cecum had the most radioactive material | Hepatic Extraction [9]: 67.0 ± 1.73% | In vitro Metabolic CLpred [9]: 13.8 ± 3.67 mL/min/kg | Hepatic Extraction [10]: 47.3 ± 0.78% | In vitro Metabolic CLpred [10]: 26.2 ± 0.5 mL/min/kg | incidences of pruritus [11]: no incidences of pruritus | CL ([12]; IV 1 mg/kg): 9 mL/min/kg | Oral Bioavailability ([12]; oral 3 mg/kg vs IV 1 mg/kg): 82% | Hepatic Extraction [13]: 64.4 ± 0.28% | In vitro Metabolic CLpred [13]: 28 ± 0.17 mL/min/kg | Hepatic Extraction [14]: 80.7 ± 1.02% | In vitro Metabolic CLpred [14]: 72.7 ± 1 mL/min/kg | change in distribution to the liver on co-administration of rifampin [15]: does not result in a significant change | BSEP liver expression (CPM) Relative to Vehicle ([16]; 30 mg/kg, NASH mice): 5.1 | CYP7A1 liver expression (CPM) Relative to Vehicle ([16]; 30 mg/kg, NASH mice): 0.02 | CYP8B1 liver expression (CPM) Relative to Vehicle ([16]; 30 mg/kg, NASH mice): 0.007 | OST-B liver expression (CPM) Relative to Vehicle ([16]; 30 mg/kg, NASH mice): 135.7 | SHP liver expression (CPM) Relative to Vehicle ([16]; 30 mg/kg, NASH mice): 4.6 | liver triglyceride levels ([16]; 100 mg/kg): statistically significant reduced | serum triglyceride concentration ([16]; 100 mg/kg): statically significant reduction | serum ALT level [16, 22]: reduced | serum AST level [16, 22]: reduced | ballooning vs untreated NASH mice [16, 23]: significantly reduced | inflammation vs untreated NASH mice [16, 23]: significantly reduced | steatosis vs untreated NASH mice [16, 23]: significantly reduced | serum total cholesterol level ([16]; 10, 30, and 100 mg/kg): statistically significant reduction | collagen, type 1, alpha 1 expression in the liver vs control NASH mice ([16]; 10, 30, or 100 mg/kg): decreased | NAFLD Activity Score (NAS) vs untreated NASH mice [16, 24]: significantly lower | liver fibrosis (Sirius Red) vs untreated NASH control [16, 24]: statistically significant reduced fibrosis | expression of inflammatory and fibrosis related genes ([16]; mouse model of NASH): reduced | Pruritus ([17]; 25 mg daily for 7 days): No | Pruritus ([17]; 75 mg daily for 7 days): No | Pruritus ([17]; 150 mg daily for 7 days): No | % 7AC4 suppression at nadir ([17]; oral 25 mg daily for 7 days): 75% | % 7AC4 suppression at nadir ([17]; oral 75 mg daily for 7 days): 82% | % 7AC4 suppression at nadir ([17]; oral 150 mg daily for 7 days): 93% | Pruritus ([17]; subjects taking the highest doses of Compound 1): no pruritus was observed | major elimination pathway [18]: biliary excretion | metabolite formed [18]: acyl glucuronide metabolite | Oral Bioavailability [19]: 21% | pharmacodynamics biomarker 7AC4 after repeated oral dosing [20]: sustained suppression

Structure (SMILES): O=C(O)c1ccnc(N2CC(O)(c3ccc(OCc4c(-c5c(Cl)cccc5Cl)noc4C4CC4)cc3Cl)C2)c1 [cilofexor]
pruritus in longer term studies [6]: known to result in pruritus

Structure (SMILES): N#Cc1nn(-c2cc(Cl)c(Oc3n[nH]c(=O)c4c3CCCC4)c(Cl)c2)c(=O)[nH]c1=O [Compound 3]
IC50 [1]: > 10000 nM | THRα/β selectivity (factor) [2]: > 8.1
